Patent US20220160680A1, “MICROORGANISM MIXTURES, MOLECULES DERIVED THEREFROM, AND METHODS OF USE THEREOF” (B. G. Negev Technologies and Applications Ltd., at …, priority 2018, published 2022)
Entries after “also recorded” stand apart in the source; their conditions may differ.

Tests used:
[1] = test system: V. cholerae VC1 (WT) and MM920; test: V. cholerae biofilm modulation (CLSM, crystal violet); assay type: cell-based, Vibrio cholerae; conditions: 900 nM CAI-1
Procedure: The various pathogenic indicator strains used in this study were V. cholerae strain MM920 (ACqsA AluxQ), Vibrio harveyi strain MM30 (LuxS, Tn5). To initiate biofilm formation, bacteria was grown in the absence of the V. cholerae autoinducer 1 (CAI1). In addition, the bacteria were grown in presence of: 900 nM CAI1 (Vibrio Cholerae MM920), 900 nM CAI1, 200 μM Tryptophol acetate and 200 μM Tyrosol acetate, and 200 μM Tryptophol acetate and 200 μM Tyrosol acetate.
Biofilms were grown under shaking conditions at 30° C. in 96-well plate (Thermo Scientific, Rochester, N.Y., USA). […] The stained cells were washed twice with PBS. Biofilm images were taken by CLSM (Plan-Apochromat 20×/0.8 M27, Zeiss LSM880, Germany).
For static biofilm assay, overnight cultures of V. cholerae strain MM920 was diluted 1:10 in fresh LB medium containing a final concentration of 100 μM from each Tryptophol acetate and Tyrosol acetate or DMSO (up to 1%) as control. […] One in absence of the V. cholerae autoinducer (CAI-1) and the other one in presence of 900 nM CAI-1. Biofilms were grown under non-shaking conditions at 37° C. in 96-well plate (Thermo Scientific, Rochester, N.Y., USA). […] The stained cells were washed twice with PBS. Biofilm images were taken by CLSM (Plan-Apochromat 20×/0.8 M27, Zeiss LSM880, Germany).
Biofilm matrixes of V. cholerae VC1 WT (FIGS. 23Ai and 23Aii), and the V. cholerae MM920 mutant (FIGS. 23Aiii and 23Aiv) were grown for 24 hours with or without tryptophol acetate in the growth medium, and stained using the BacLight® Dead/Live Kit to distinguish viable cells.

Peritoneal macrophages = test: In vitro LPS stimulation of peritoneal macrophages, cytokine ELISA (24 hr); assay type: cell-based, mice; conditions: 100 μM, 0.1 μg/ml LPS
Procedure: Peritoneal macrophages were harvested using the protocol as described previously (Zhang et al., 2008). Elicited macrophages were harvested from WT mice which had received a 2.5 ml intraperitoneal administration of 3% Brewer thioglycolate broth (Sigma, UK) 72 hr prior collection.
Peritoneal macrophages cells (5×10^5/ml) were cultured with 0.1 μg/ml Lipopolysaccharides (LPS-Escherichia coli serotype 0127:B8, Sigma-Aldrich) and in the presence of 100 μM: tryptophol acetate, tyrosol acetate, dopamine HCl, caffeic acid, or combination of tryptophol acetate and tyrosol acetate, for 24 hr. Following culture, supernatants were collected and stored at −20° C. for the detection of the IL-6 cytokine. For IL-la detection, the inventors induced macrophages lysis by adding fresh RPMI medium and thawing three times.
IL-la and IL-6 levels were measured in peritoneal exudate fluids and LPS-stimulated culture supernatants by ELISA. To detect the cytokines, a R&D ELISA kit (Catalog #MLA00 and DY406, respectively) was used as per the manufacturer's instructions. A standard curve was constructed using serial dilutions of purified IL-la or IL-6 starting at a concentration of 15 ng/ml.

SMILES | Biofilm of V. cholerae MM920, autoinducer alone [1] | Production of IL-6 (Peritoneal macrophages)
CCCCCCCCCC(=O)[C@@H](O)CC [CAI-1, reference compound] | disruption of biofilm integrity | 
O=C(O)/C=C/c1ccc(O)c(O)c1 [caffeic acid] |  | comparable results; also recorded: dramatically reduced
